Data as given in patent US6462184B2, “Compounds, processes and intermediates for synthesis of mixed backbone oligomeric compounds” (ISIS Pharmaceuticals, Inc., priority 1999, dated 2002).
[PN] = dimethylaminoethyl (DMAE) phosphoramidate internucleoside linkage; e = 2'-O-(2-methoxyethyl) (MOE); d = 2'-deoxy (DNA)

Experiments:
c-raf mRNA = c-raf mRNA expression in A549 cells; type: cell-based, human; details: between 50-400 nM range
Method: Gapmers designed in this study are based on the parent sequence of ATGCATTCTGCCCCCAAGGA (SEQ ID No:9) which is a uniform deoxy phosphorothioate. This sequence is an antisense oligomeric compound targeted to mouse c-raf. c-raf m-RNA expression assay was carried out according to a reported procedure (Monia et al., Nature Medicinek, 1996, 2, 668). Human A549 lung carcinoma cells were obtained from the American Type Tissue Collection. These were grown in Dulbecco's modified Eagle's medium containing 1 g of glucose/liter (DMEM) and FCS (10%) and routinely passaged when 90-95% confluent.
Assay for Oligonucleoside Inhibition of c-raf Protein Synthesis: A549 cells were plated in 6-well plates (Falcon Labware, Lincoln Park, N.J.) and 24-48 hours later (when 80-90% confluent) treated with 1 μM phorbol 12,13-dibutyrate (PDBu) for 18 hours. This procedure removes greater than 75% of immunoreactive c-rafprotein from the cells. Cells were then washed three times with DMEM (3 mL) (to remove PDBu), and DMEM (1 mL) containing DOTMA/DOPE solution (20 μg/mL, LipofectinR, Bethesda Research Laboratories) was added. Oligonucleoside gapmers were then added to the required concentration (for our initial screen, 1 μM) from a 10 μM stock solution, and the two solutions were mixed by swirling of the dish. The cells were incubated at 37° C. for 4 hours, washed once with DMEM+FCS (10%) to remove the DOTMA/DOPE solution, and then additional DMEM (3 mL)+10% FCS was added and the cells were allowed to recover for another 10 hours. Total RNA is prepared 24 hours after the experiment and analyzed for c-raf and G3PDH mRNA levels after normalization to G3PDH mRNA.

ICAM-1 = ICAM-1 expression in HUVEC cells (flow cytometry); type: cell-based, human
Method: Targeted oligomeric compounds were prepared and assayed using HUVEC cells to determine their ability to inhibit the expression of ICAM-1. HUVEC cells were washed three times with Opti-MEM (Life Technologies, Inc.) that was prewarmed to 37° C. Oligomeric compounds were premixed with Lipofectin (10 μg/mL, Life Technologies, Inc.) in Opti-MEM, serially diluted to the desired concentrations, and applied to washed cells. Basal and untreated (no oligomeric compounds added) control cells were also treated with Lipofectin. Cells were incubated for 4 hours at 37° C., at which time the medium was removed and replaced with standard growth medium with or without TNF-a ([…], R&D Systems). Incubation at 37° C. was continued for different times as indicated below.
A fluorescence-activated cell sorter was used to quantitate ICAM-1 protein expression. The cells were removed from the plate surface by brief trypsinization with trypsin (0.25%) in PBS. Trypsin activity was quenched with a solution of bovine serum albumin (2%) and sodium azide (0.2%) in PBS (+Mg/Ca). […]
Expression of cell surface ICAM-1 was determined by flow cytometry using a Becton Dickinson FACScan. The percentage of ICAM-1 expression in the control was calculated as follows: [(oligomeric compound-treated ICAM-1 value)−(basal ICAM-1 value)/(non-treated ICAM-1 value)−(basal ICAM-1 value))].

Substance	c-raf mRNA expression inhibition (c-raf mRNA)	controlling ICAM-1 expression (ICAM-1; HUVEC cells (printed HWEC), compound synthesized by amidite chemistry and same compound by H-phosphonate chemistry)	inhibiting ICAM-1 expression (ICAM-1; between 3 and 100 nM range, both compounds synthesized from different chemistries)
A*NT*NG* C*A*T*S TSCSTS GSCSCS CSCSC* A*A*G* G*A* (antisense ATGCATTCTGCCCCCAAGGA; sugars from the 5' end e6 d8 e6, linkages [PN]2 o3 s9 o5 (s phosphorothioate, o phosphodiester), methylation of C not given here) [SEQ ID No 10, 2'-MOE gapmer with PN-PO-PS-PO mixed backbone, 20-mer]	dose dependent manner		
A*NT*NG* C*A*T*S TSCSTS GSCSCS CSCSC* A*A*G*N G*NA* (antisense ATGCATTCTGCCCCCAAGGA; 2'-MOE gapmer, mixed PN/PO/PS backbone, chemistry not fully specified) [SEQ ID No 11, 2'-MOE gapmer with PN-PO-PS-PO-PN mixed backbone, 20-mer]		efficacious	display dose response
A*T*G* C*A*T*S TSCSTS GSCSCS CSCSC* A*A*G* G*A* (antisense ATGCATTCTGCCCCCAAGGA; 2'-MOE gapmer with mixed PO/PS backbone, marks not given here, further chemistry not given here) [SEQ ID No 9, 2'-MOE gapmer with PO-PS-PO mixed backbone, 20-mer, antisense to c-raf]	dose dependent manner		
T*NT*NT*S GSASCS ASCSGS GSCSAS CSCSAS T*ST*NT*N T* (antisense TTTGACACGGCACCATTTT; sugars from the 5' end e3 d12 e4, linkages [PN]2 s14 [PN]2 (s phosphorothioate, o phosphodiester), methylation of C not given here) [SEQ ID No 4, 2'-MOE gapmer with PN-PS-PN mixed backbone, 19-mer]	dose dependent manner		
